In one assay the test system is B16-F10. The assay is described as follows: Anticancer activity against mouse B16F10 cells assessed as cell survival measured after 48 hrs by MTT assay. The conditions noted are these: B16-F10, 48 h. Type of assay: functional, cell-based. A general note: Tetrazolium dyes change colour on reduction, which living cells bring about.
The target of assay [1] is Telomerase reverse transcriptase (Homo sapiens, UniProt O14746). The assay is described as follows: Inhibition of telomerase in human SGC7901 cells by TRAP assay. The assay is classed as cell-based, SGC-7901.
Sequence of Telomerase reverse transcriptase (O14746 whole entry): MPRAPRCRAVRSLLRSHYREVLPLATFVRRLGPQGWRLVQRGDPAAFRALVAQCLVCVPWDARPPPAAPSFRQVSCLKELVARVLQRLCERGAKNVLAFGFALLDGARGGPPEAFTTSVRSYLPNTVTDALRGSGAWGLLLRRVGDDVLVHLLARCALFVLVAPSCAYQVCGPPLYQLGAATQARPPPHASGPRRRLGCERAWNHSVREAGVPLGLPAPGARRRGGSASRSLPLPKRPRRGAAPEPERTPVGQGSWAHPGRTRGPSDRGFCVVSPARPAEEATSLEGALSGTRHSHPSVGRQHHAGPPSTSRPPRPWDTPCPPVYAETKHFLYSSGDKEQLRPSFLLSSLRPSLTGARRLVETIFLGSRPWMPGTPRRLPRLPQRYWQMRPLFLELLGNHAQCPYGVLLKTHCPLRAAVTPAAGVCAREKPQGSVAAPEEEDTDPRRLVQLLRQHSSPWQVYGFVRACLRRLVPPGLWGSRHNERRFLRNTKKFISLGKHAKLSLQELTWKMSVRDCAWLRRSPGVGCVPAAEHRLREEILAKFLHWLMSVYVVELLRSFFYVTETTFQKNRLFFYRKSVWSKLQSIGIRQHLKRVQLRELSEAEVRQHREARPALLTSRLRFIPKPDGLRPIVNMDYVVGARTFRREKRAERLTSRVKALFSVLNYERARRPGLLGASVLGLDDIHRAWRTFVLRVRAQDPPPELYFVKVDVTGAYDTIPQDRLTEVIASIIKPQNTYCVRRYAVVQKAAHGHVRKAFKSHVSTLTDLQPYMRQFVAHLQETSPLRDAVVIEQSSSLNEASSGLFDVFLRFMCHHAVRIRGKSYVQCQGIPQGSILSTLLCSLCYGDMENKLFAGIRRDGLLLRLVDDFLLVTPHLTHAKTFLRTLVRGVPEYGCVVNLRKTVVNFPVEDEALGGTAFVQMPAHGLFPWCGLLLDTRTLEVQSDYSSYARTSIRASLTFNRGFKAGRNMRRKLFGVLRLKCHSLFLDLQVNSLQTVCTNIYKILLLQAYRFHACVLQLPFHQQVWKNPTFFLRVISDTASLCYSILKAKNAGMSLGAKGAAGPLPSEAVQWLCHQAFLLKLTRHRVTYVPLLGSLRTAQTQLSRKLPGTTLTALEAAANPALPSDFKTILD
Another assay deals with SGC-7901. The assay is described as follows: Anticancer activity against human SGC7901 cells assessed as cell survival measured after 48 hrs by MTT assay. The assay is classed as functional, cell-based. The conditions noted are these: SGC-7901, 48 h.

As for `CC(=O)N1N=C(c2ccc(C)cc2)CC1c1ccc2c(c1)OCO2` (stereo not given), the IC50 – broadly, the concentration that gives 50% inhibition – with B16-F10 turned out to be 12.8 µM; in assay [1], 1.3 µM; in the assay on SGC-7901 it was 21.2 µM.
For `CC(=O)N1N=C(c2ccccc2)CC1c1ccc2c(c1)OCO2` (stereo not given), the IC50 in the assay on B16-F10 was determined as 14 µM; in assay [1] it was 3.4 µM; in the assay on SGC-7901, 25.7 µM.
Regarding `CC(=O)N1N=C(c2ccc(Br)cc2)CC1c1ccc2c(c1)OCO2` (stereo not given), the IC50 worked out at 18.9 µM with B16-F10, 6.2 µM in assay [1] and 30.1 µM in the assay with SGC-7901.
In the case of `CC(=O)N1N=C(c2ccc(F)cc2)CC1c1ccc2c(c1)OCCCO2` (stereo not given), half-maximal inhibition in assay [1] (IC50) required 83.6 µM.
For `CC(=O)N1N=C(c2ccc(Cl)cc2)CC1c1ccc2c(c1)OCCCO2` (stereo not given), in assay [1], 82.6 µM corresponded to half-maximal inhibition (IC50).
In the case of `CC(=O)N1N=C(c2ccc(Br)cc2)CC1c1ccc2c(c1)OCCCO2` (stereo not given), the concentration for half-maximal inhibition (IC50) was 97 µM in the assay with B16-F10 and 76.4 µM in assay [1].
With `CC(=O)N1N=C(c2ccc(C)cc2)CC1c1ccc2c(c1)OCCCO2` (stereo not given), the results for the IC50 (in the assay on B16-F10; in assay [1]) were 89.7 µM and 54.9 µM, respectively.
As for `COc1ccc(C2=NN(C(C)=O)C(c3ccc4c(c3)OCCCO4)C2)cc1` (stereo not given), the values for the 50% inhibitory concentration (IC50) (in the assay with B16-F10; in assay [1]; in the assay with SGC-7901) were 85.3 µM, 46.7 µM and 94 µM, respectively.
In assay [1], `CC(=O)N1N=C(c2ccc([N+](=O)[O-])cc2)CC1c1ccc2c(c1)OCCCO2` (stereo not given) returned an IC50 of 93.2 µM.
Turning to `CC(=O)N1N=C(c2ccc(F)cc2)CC1c1ccc2c(c1)OCO2` (stereo not given), the IC50 in the assay with B16-F10 is 22.2 µM; in assay [1], 7.3 µM; in the assay with SGC-7901, 40.9 µM.
For the compound `CC(=O)N1N=C(c2ccc(Cl)cc2)CC1c1ccc2c(c1)OCO2` (stereo not given), the IC50 in the assay on B16-F10 came out at 20.8 µM; in assay [1], 6.7 µM; in the assay on SGC-7901, 35.3 µM.
For `COc1ccc(C2=NN(C(C)=O)C(c3ccc4c(c3)OCO4)C2)cc1` (stereo not given), the IC50 with B16-F10 was determined as 5.34 µM; in assay [1] it was 0.9 µM; in the assay with SGC-7901 it was 18.1 µM.
On to `CC(=O)N1N=C(c2ccc([N+](=O)[O-])cc2)CC1c1ccc2c(c1)OCO2` (stereo not given), for which the IC50 with B16-F10 is 24.7 µM; in assay [1], 8.7 µM; with SGC-7901, 41.9 µM.
Turning to `CC(=O)N1N=C(c2ccccc2)CC1c1ccc2c(c1)OCCO2` (stereo not given), the values for the IC50 (with B16-F10; in assay [1]; with SGC-7901) were 39.5 µM, 18.5 µM and 50.2 µM, respectively.
Take `CC(=O)N1N=C(c2ccc(F)cc2)CC1c1ccc2c(c1)OCCO2` (stereo not given): the IC50 in the assay on B16-F10 was determined as 53.1 µM; in assay [1], 25.7 µM; in the assay on SGC-7901, 68.4 µM.
As for `CC(=O)N1N=C(c2ccc(Cl)cc2)CC1c1ccc2c(c1)OCCO2` (stereo not given), the results for the half-maximal inhibitory concentration (IC50) (in the assay on B16-F10; in assay [1]; in the assay on SGC-7901) were 47.3 µM, 23.8 µM and 59.5 µM, respectively.
In the same order, the values of `CC(=O)N1N=C(c2ccc(Br)cc2)CC1c1ccc2c(c1)OCCO2` (stereo not given) are 44.1 µM, 22.9 µM and 52.3 µM.
Turning to `CC(=O)N1N=C(c2ccc(C)cc2)CC1c1ccc2c(c1)OCCO2` (stereo not given), the values for the IC50 (in the assay with B16-F10; in assay [1]; in the assay with SGC-7901) were 37.9 µM, 13.4 µM and 49.2 µM, respectively.
For `COc1ccc(C2=NN(C(C)=O)C(c3ccc4c(c3)OCCO4)C2)cc1` (stereo not given), in that order: 31.7 µM, 10.6 µM and 45.8 µM.
Turning to `CC(=O)N1N=C(c2ccc([N+](=O)[O-])cc2)CC1c1ccc2c(c1)OCCO2` (stereo not given), the IC50 was found to be 57.8 µM with B16-F10, 37.4 µM in assay [1] and 70 µM in the assay with SGC-7901.
Compound `CC(=O)N1N=C(c2ccccc2)CC1c1ccc2c(c1)OCCCO2` (stereo not given) returned a half-maximal inhibitory concentration (IC50) in assay [1] of 68.3 µM.
`O=c1[nH]cc(F)c(=O)[nH]1` [FLUOROURACIL]: the IC50 with B16-F10 was 21.4 µM; in the assay on SGC-7901 it was 46.4 µM.

These data come from ChEMBL document CHEMBL2331218, “Synthesis, biological evaluation, 3D-QSAR studies of novel aryl-2H-pyrazole derivatives as telomerase inhibitors” (Bioorg Med Chem Lett, 2013).
